Measurements published in patent US7585851B2, “3′-prodrugs of 2′-deoxy-β-L-nucleosides” (priority 2000, dated 2009).
Entries after “also recorded” stand apart in the source; their conditions may differ. Read-outs that look alike come from different tables or passages of the source.

Legend:
[1] = rat, in vivo
DHBV = DHBV DNA synthesis in primary duck hepatocyte cultures; format: cell-based, duck hepatitis B virus; details: primary duck hepatocytes (PDH)
HSV-2 = experiment: Antiviral panel: HSV-2 (HFF); format: cell-based
Measles = experiment: Antiviral panel: Measles (CV-1); format: cell-based
HSV-1 = experiment: Antiviral panel: HSV-1 (HFF); format: cell-based
[2] = Bioavailability of the prodrugs of L-dC in monkeys, with and without L-dT; details: oral
[3] = Single dose bioavailability of dival-L-dC (IV and oral) in cynomologus monkey; format: in vivo, cynomologus monkey (macaca fascicularis)
From the text: The drug was quantitated in plasma and urine with a liquid chromatography-mass spectrometry (LC-MS) technique.

Parainfluenza type 3 = experiment: Antiviral panel: Parainfluenza type 3 (MA-104); format: cell-based
[4] = rat
Procedure: The drug was detected and the concentration determined in plasma and urine using a reverse-phase HPLC technique. The data were analyzed by a non-modeling mathematical method and the AUCs derived by the linear trapezoidal rule.

[5] = test system: HFF, human foreskin fibroblast
[6] = test system: MA-104, rhesus monkey kidney epithelial cells
RSV type A = experiment: Antiviral panel: RSV type A (MA-104); format: cell-based
[7] = test system: Salmonella typhimurium strains TA98, TA100, TA1535, and TA1537; experiment: Plate incorporation mutation assay, S. typhimurium; details: with and without rat liver S-9; up to 5000 mg/plate, 5000 μg/plate
Procedure: (§1) L-dC was tested for its potential to cause mutation at the histidine operon of Salmonella typhimurium strains TA98, TA100, TA1535, and TA1537 and at the tryptophan opeton of Escherichia coli strain WP2uvrA. L-dC at concentrations of […] plus positive and negative controls were tested. […] After incubation for approximately 68 hours, L-dC and controls were evaluated for the number of revertants per plate and integrity of the background microcolony lawn.

Influenza A/H1N1 = experiment: Antiviral panel: Influenza A/H1N1 (MDCK); format: cell-based
[8] = test system: KB, human nasopharyngeal carcinoma
Influenza B = experiment: Antiviral panel: Influenza B (MDCK); format: cell-based
[9] = test system: Escherichia coli strain WP2uvrA; experiment: Plate incorporation mutation assay, E. coli; details: with and without rat liver S-9; up to 5000 mg/plate, 5000 μg/plate
Procedure: as §1

WHV = experiment: Woodchuck model of chronic hepatitis B infection, 12 weeks oral; details: 1 mg/kg/day orally, woodchucks
Procedure: WHV DNA and body weight were measured on Days 0, 1, 3, 7, 14, 21, 28, 42, 56, and 84 as well as on post-treatment Days 7, 14, 21, 28, 42, 56, 70, and 84. WHV DNA levels were determined by quantitative PCR. Appropriate samples for hematology, serum chemistries, WHV serology, and liver biopsy were collected pretreatment and on Day 84.

bone marrow cells = experiment: Mouse micronucleus assay; format: in vivo; details: single oral dose up to 2000 mg/kg, male and female mice
Procedure: L-dC was tested for its potential to induce micronucleated polychromatic erythrocytes (MPCE) in the bone marrow cells of male and female mice. L-dC at concentrations of 500, 1000, and 2000 mg/kg and positive and negative controls were tested. Study […] as a single dose. Two harvests approximately 24 and 48 hours after L-dC or negative control administration were performed, and a single harvest approximately 24 hours after positive control administration was performed. Five male and five female mice per dose group per harvest time were used. The percentage of polychromatic erythrocytes (PCE) and MPCE frequency were determined for each timepoint.

[10] = Oral bioavailability of L-dC via dival-L-dC in cynomologus monkey (HPLC study); details: cynomolgus monkey, in vivo, po
From the text: The drug was quantitated in plasma and in urine using HPLC analysis.

Influenza A/H3N2 = experiment: Antiviral panel: Influenza A/H3N2 (MDCK); format: cell-based
[11] = format: in vivo, rhesus monkey
Procedure: The pharmacokinetics of L-dC following oral administration in the rhesus monkey was determined. […] Blood samples for pharmacokinetic analysis were collected pre-dose and at 0.25, 0.5, 1, 2, 3, 6, 8 and 24 hours after dosing. Urine samples for pharmacokinetic analyses were collected via pan catch pre-dose and over the following intervals post-dose: 0-2, 2-4, 4-8 and 8-12 hours, and then at 12-hour intervals thereafter through 336 hours post-dose. The drug was detected and concentration determined using a reverse-phase HPLC technique.

HepG2 cells = experiment: Mitochondrial toxicity assay in HepG2 cells; format: cell-based, human
[12] = dival-L-dC 10 mg/kg oral, monkey
[13] = L-dC 10 mg/kg oral, rhesus monkey
[14] = HepG2, L-dC 10, FIAU 10, ZDV 50, ddC 1 μM

Compound: Nc1ccn([C@@H]2C[C@@H](O)[C@H](CO)O2)c(=O)n1 [L-dC, 2′-deoxy-β-L-cytidine]
- Tlast [1]: 24 h
- estimated terminal phase half-lives ([1]; 1000 mg/kg): 9 to 17 h
- estimated terminal phase half-lives ([1]; 2000 mg/kg): 6 to 8 h
- AUClast ([1]; po, 2000 mg/kg/day): 461 µg·h/mL
- EC50 (DHBV): 0.87 µM
- EC50 (HSV-2): >100 µg/mL
- EC50 (Measles): > 100 µM
- EC50 (HSV-1): >100 µg/mL
- % BA w/ L-dT ([2]; coadministered with 10 mg/kg L-dT): 11.9 ± 1.7%
- % BA (bioavailability of L-dC) ([2]; estimated relative to AUC of L-dC (oral dose)): 16.4 ± 5.0%
- share of drug excreted / recovered dose in urine, by analyte ([3]; IV dival-L-dC, analyte = label): ~93%
- Cmax ([3]; Intravenous (10 mg/kg Dival-L-dC), analyte = label, read-out: Cmax of each metabolite): 24.6 µM
- Cmax ([3]; Oral (10 mg/kg dival-L-dC), analyte = label, read-out: Cmax of each metabolite): 8.26 µM
- AUC0.25→8 of L-dC ([3]; dival-L-dC 10 mg/kg IV, monkey): 19.8 µM·h
- CL of L-dC ([3]; dival-L-dC 10 mg/kg IV, monkey): 16.8 mL/min/kg
- Vd of L-dC ([3]; dival-L-dC 10 mg/kg IV, monkey): 2.46 L/kg
- t1/2 of L-dC ([3]; dival-L-dC 10 mg/kg IV, monkey): 1.73 h
- Cmax ([3]; dival-L-dC 10 mg/kg IV, monkey, read-out: Cmax of L-dC): 24.6 µM
- AUC0.25→8 of L-dC [3, 12]: 14.0 µM·h
- Tmax of L-dC [3, 12]: 0.67 h
- t1/2 of L-dC [3, 12]: 2.28 h
- share of plasma drug levels at Cmax ([3]; oral dival-L-dC): > 99%
- share of drug excreted / recovered dose in urine, by analyte ([3]; oral dival-L-dC, analyte = label): ~95%
- EC50 (Parainfluenza type 3): > 100 µM
- AUC0.25→8 (table head AUC0-25-28) ([4]; L-dC 10 mg/kg IV): 30100 µM·h
- CL ([4]; L-dC 10 mg/kg IV): 24 mL/min/kg
- Tmax ([4]; L-dC 10 mg/kg IV): 0 h
- Vd ([4]; L-dC 10 mg/kg IV): 2.53 L/kg
- t1/2 ([4]; L-dC 10 mg/kg IV): 1.21 h
- oral bioavailability F ([4]; L-dC 10 mg/kg oral vs IV): 15.4%
- AUC0.25→8 (table head AUC0-25-28) ([4]; L-dC 10 mg/kg oral): 4770 µM·h
- Tmax ([4]; L-dC 10 mg/kg oral): 1.0 h
- t1/2 ([4]; L-dC 10 mg/kg oral): 2.52 h
- CC50 [5]: >100 µg/mL
- CC50 [6]: > 100 µM
- EC50 (RSV type A): > 100 µM
- mutagenicity [7]: no evidence of mutagenicity; also recorded: not mutagenic
- EC50 (Influenza A/H1N1): > 100 µM
- CC50 [8]: > 100 µM
- EC50 (Influenza B): > 100 µM
- mutagenicity [9]: no evidence of mutagenicity; also recorded: not mutagenic
- end-of-treatment liver biopsy histomorphology (WHV): no histomorphological evidence of fatty changes; also recorded: no evidence of fatty change
- micronucleus assay result (bone marrow cells): negative; also recorded: not clastogenic
- share of drug excreted / recovered dose in urine, by analyte [10]: ~89%
- EC50 (Influenza A/H3N2): > 100 µM
- Tmax [11, 13]: 0.83 h
- renal clearance [11, 13]: 4.55 mL/min/kg
- t1/2 [11, 13]: 3.34 h
- oral bioavailability ([11]; L-dC oral, rhesus monkey): ~16%
- administered oral dose recovered in urine ([11]; after 48 hours): 15%
- share of drug excreted / recovered dose in urine, by analyte ([11]; oral L-dC, analyte = label): ~77%
- administered oral dose recovered in urine ([11]; within 8 hours): Approximately 8.5%
- effect on mitochondrial DNA content (HepG2 cells; HepG2, 14 days, concentrations up to 0.10 μM): no effect
- CC50 (HepG2 cells; HepG2, after 14 days of treatment): > 2000 µM
- L-Lactate, % of Control (HepG2 cells; [14]): 101 ± 2 % of Control
- Lipid Droplet Formation (HepG2 cells; [14]): negative
- mtDNA, % of Control (HepG2 cells; [14]): 107 ± 8 % of Control
- Mitochondrial Morphology (HepG2 cells; HepG2, L-dC 10, FIAU 10, ZDV 50, ddC 1 μM, electron microscopy): No discernible changes; also recorded: normal
